Measured values taken from publication PMC12420824, “Discovery of a selective alpha-kinase 1 inhibitor for the rare genetic disease ROSAH syndrome” (Nature Communications, 2025).
Values joined by “and” are separate entries in the source; they are usually repeats but may differ in a detail not shown here. Equal values may be shown once.

Tests used:
[1] = target: CDK8/cyclin C (Homo sapiens, UniProt P49336); assay: HotSpot kinase assay; conditions: read-out: % Enzyme Activity (relative to DMSO control), 10 uM
From the text: (§1) Additionally, a 10-dose dilution series of staurosporine and other enzyme-appropriate compounds were included as positive control inhibitors.

[2] = target: JNK1 (Homo sapiens, UniProt P45983); assay: HotSpot kinase assay; conditions: read-out: % Enzyme Activity (relative to DMSO control), 10 uM
From the text: as §1

[3] = target: FYN (Homo sapiens, UniProt P06241); assay: HotSpot kinase assay; conditions: read-out: % Enzyme Activity (relative to DMSO control), 10 uM
[4] = target: BRSK1 (Homo sapiens, UniProt Q8TDC3); assay: HotSpot kinase assay; conditions: read-out: % Enzyme Activity (relative to DMSO control), 10 uM
From the text: as §1

[5] = target: IRAK1 (Homo sapiens, UniProt P51617); assay: HotSpot kinase assay; conditions: read-out: % Enzyme Activity (relative to DMSO control), 10 uM
From the text: as §1

[6] = target: CAMK1b (Homo sapiens, UniProt Q6P2M8); assay: HotSpot kinase assay; conditions: read-out: % Enzyme Activity (relative to DMSO control), 10 uM
[7] = target: STK32C/YANK3 (Homo sapiens, UniProt Q86UX6); assay: HotSpot kinase assay; conditions: read-out: % Enzyme Activity (relative to DMSO control), 10 uM
[8] = target: IGF1R (Homo sapiens, UniProt P08069); assay: HotSpot kinase assay; conditions: read-out: % Enzyme Activity (relative to DMSO control), 10 uM
[9] = target: TRKA (Homo sapiens, UniProt P04629); assay: HotSpot kinase assay; conditions: read-out: % Enzyme Activity (relative to DMSO control), 10 uM
From the text: as §1

[10] = target: WNK2 (Homo sapiens, UniProt Q9Y3S1); assay: HotSpot kinase assay; conditions: read-out: % Enzyme Activity (relative to DMSO control), 10 uM
[11] = target: CDK2/cyclin A (Homo sapiens, UniProt P24941); assay: HotSpot kinase assay; conditions: read-out: % Enzyme Activity (relative to DMSO control), 10 uM
From the text: as §1

[12] = target: PDK1/PDHK1 (Homo sapiens, UniProt Q15118); assay: HotSpot kinase assay; conditions: read-out: % Enzyme Activity (relative to DMSO control), 10 uM
[13] = tested on: HEK-293 cells stably overexpressing ALPK1; assay: CXCL10, TNF, CXCL8 mRNA (qPCR); conditions: 30 h
[14] = target: HCK (Homo sapiens, UniProt P08631); assay: HotSpot kinase assay; conditions: read-out: % Enzyme Activity (relative to DMSO control), 10 uM
[15] = target: CAMK2d (Homo sapiens, UniProt Q13557); assay: HotSpot kinase assay; conditions: read-out: % Enzyme Activity (relative to DMSO control), 10 uM
[16] = target: EPHA4 (Homo sapiens, UniProt P54764); assay: HotSpot kinase assay; conditions: read-out: % Enzyme Activity (relative to DMSO control), 10 uM
From the text: as §1

[17] = target: SRPK1 (Homo sapiens, UniProt Q96SB4); assay: HotSpot kinase assay; conditions: read-out: % Enzyme Activity (relative to DMSO control), 10 uM
From the text: as §1

[18] = 28 day GLP toxicology study; assay type: in vivo; conditions: dogs
[19] = target: NLK (Homo sapiens, UniProt Q9UBE8); assay: HotSpot kinase assay; conditions: read-out: % Enzyme Activity (relative to DMSO control), 10 uM
From the text: as §1

[20] = target: KHS/MAP4K5 (Homo sapiens, UniProt Q9Y4K4); assay: HotSpot kinase assay; conditions: read-out: % Enzyme Activity (relative to DMSO control), 10 uM
[21] = target: CAMKK1 (Homo sapiens, UniProt Q8N5S9); assay: HotSpot kinase assay; conditions: read-out: % Enzyme Activity (relative to DMSO control), 10 uM
From the text: as §1

[22] = target: PYK2 (Homo sapiens, UniProt Q14289); assay: HotSpot kinase assay; conditions: read-out: % Enzyme Activity (relative to DMSO control), 10 uM
From the text: as §1

[23] = target: PKG1a (Homo sapiens, UniProt Q13976); assay: HotSpot kinase assay; conditions: read-out: % Enzyme Activity (relative to DMSO control), 10 uM
From the text: as §1

[24] = target: BRAF (Homo sapiens, UniProt P15056); assay: HotSpot kinase assay; conditions: read-out: % Enzyme Activity (relative to DMSO control), 10 uM
[25] = target: TSSK2 (Homo sapiens, UniProt Q96PF2); assay: HotSpot kinase assay; conditions: read-out: % Enzyme Activity (relative to DMSO control), 10 uM
From the text: as §1

[26] = target: AURORA C (Homo sapiens, UniProt Q9UQB9); assay: HotSpot kinase assay; conditions: read-out: % Enzyme Activity (relative to DMSO control), 10 uM
[27] = target: CAMK2b (Homo sapiens, UniProt Q13554); assay: HotSpot kinase assay; conditions: read-out: % Enzyme Activity (relative to DMSO control), 10 uM
From the text: as §1

[28] = target: FLT4/VEGFR3 (Homo sapiens, UniProt P35916); assay: HotSpot kinase assay; conditions: read-out: % Enzyme Activity (relative to DMSO control), 10 uM
[29] = target: EPHA7 (Homo sapiens, UniProt Q15375); assay: HotSpot kinase assay; conditions: read-out: % Enzyme Activity (relative to DMSO control), 10 uM
From the text: as §1

[30] = target: EPHA2 (Homo sapiens, UniProt P29317); assay: HotSpot kinase assay; conditions: read-out: % Enzyme Activity (relative to DMSO control), 10 uM
[31] = target: PKG2/PRKG2 (Homo sapiens, UniProt Q13237); assay: HotSpot kinase assay; conditions: read-out: % Enzyme Activity (relative to DMSO control), 10 uM
From the text: as §1

[32] = target: ASK1/MAP3K5 (Homo sapiens, UniProt Q99683); assay: HotSpot kinase assay; conditions: read-out: % Enzyme Activity (relative to DMSO control), 10 uM
From the text: as §1

[33] = target: HIPK1 (Homo sapiens, UniProt Q86Z02); assay: HotSpot kinase assay; conditions: read-out: % Enzyme Activity (relative to DMSO control), 10 uM
From the text: as §1

[34] = target: EPHB1 (Homo sapiens, UniProt P54762); assay: HotSpot kinase assay; conditions: read-out: % Enzyme Activity (relative to DMSO control), 10 uM
From the text: as §1

[35] = target: CDK1/cyclin B (Homo sapiens, UniProt P06493); assay: HotSpot kinase assay; conditions: read-out: % Enzyme Activity (relative to DMSO control), 10 uM
[36] = tested on: HEK-293 cells stably overexpressing ALPK1; assay: Supernatant CXCL8 ELISA; conditions: ALPK1 OE
Method: In (a) each dot represents a single well measurement. […] Each dot represents the mean of duplicate technical repeats. c NF-κB reporter cells were transiently transfected with plasmids to overexpress human ALPK1 or ALPK1[T237M]. […] Supernatant CXCL8 levels were then measured by ELISA. In c−f data represent the mean ± SEM for the triplicate wells of each treatment group. Statistical outliers were determined using Grubb’s test and indicated in the Source Data file. In (d) statistical comparisons to the wild-type ALPK1-overexpressing stable cell line group were made using the two-tailed unpaired Student’s t-tests. In (b−f) curve fitting and IC50 value calculations were performed with GraphPad Prism 6.
To obtain HEK-293 cells stably overexpressing ALPK1 or ALPK1[T237M], codon-optimized DNA coding sequencing for Flag-tagged human ALPK1 and ALPK1[T237M] were inserted into the pcDNA3.1 vector. Plasmids were transfected into HEK-293 cells using Lipofectamine 2000 as per the manufacturer’s protocol. At 48 h post-transfection, G418 (#A1720, Sigma-Aldrich, St. Louis, MO, USA) was used to select resistant transformed cells, and single-cell clones were prepared through a limiting dilution-based approach. Western blotting (See Below) was used to assess Flag-tagged ALPK1 and ALPK1[T237M] overexpression. […] Cells were then harvested to analyze the expression of CXCL10, TNF, and CXCL8 by qPCR (See Below).

[37] = target: IR (Homo sapiens, UniProt P06213); assay: HotSpot kinase assay; conditions: read-out: % Enzyme Activity (relative to DMSO control), 10 uM
From the text: as §1

[38] = target: PKCnu/PRKD3 (Homo sapiens, UniProt O94806); assay: HotSpot kinase assay; conditions: read-out: % Enzyme Activity (relative to DMSO control), 10 uM
From the text: as §1

IRAK1, sequence (P51617 whole entry): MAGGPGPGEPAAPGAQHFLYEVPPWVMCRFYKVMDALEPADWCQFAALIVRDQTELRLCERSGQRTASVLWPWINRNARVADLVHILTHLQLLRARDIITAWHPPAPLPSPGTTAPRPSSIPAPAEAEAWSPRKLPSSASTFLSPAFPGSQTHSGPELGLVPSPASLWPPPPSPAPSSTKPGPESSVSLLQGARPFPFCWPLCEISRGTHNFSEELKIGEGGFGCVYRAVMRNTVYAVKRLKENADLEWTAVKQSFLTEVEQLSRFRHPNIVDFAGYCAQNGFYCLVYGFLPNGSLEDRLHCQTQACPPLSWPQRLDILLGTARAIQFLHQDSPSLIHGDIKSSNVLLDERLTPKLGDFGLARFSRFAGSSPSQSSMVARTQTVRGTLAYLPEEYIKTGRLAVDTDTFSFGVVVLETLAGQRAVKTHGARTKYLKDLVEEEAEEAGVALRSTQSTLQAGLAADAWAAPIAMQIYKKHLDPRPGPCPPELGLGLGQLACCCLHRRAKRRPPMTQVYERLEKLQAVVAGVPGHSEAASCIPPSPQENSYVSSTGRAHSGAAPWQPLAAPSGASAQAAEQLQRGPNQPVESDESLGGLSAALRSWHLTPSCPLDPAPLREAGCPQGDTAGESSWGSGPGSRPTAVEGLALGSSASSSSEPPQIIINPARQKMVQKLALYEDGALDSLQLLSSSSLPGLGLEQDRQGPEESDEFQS
CAMK1b, sequence (Q6P2M8 whole entry): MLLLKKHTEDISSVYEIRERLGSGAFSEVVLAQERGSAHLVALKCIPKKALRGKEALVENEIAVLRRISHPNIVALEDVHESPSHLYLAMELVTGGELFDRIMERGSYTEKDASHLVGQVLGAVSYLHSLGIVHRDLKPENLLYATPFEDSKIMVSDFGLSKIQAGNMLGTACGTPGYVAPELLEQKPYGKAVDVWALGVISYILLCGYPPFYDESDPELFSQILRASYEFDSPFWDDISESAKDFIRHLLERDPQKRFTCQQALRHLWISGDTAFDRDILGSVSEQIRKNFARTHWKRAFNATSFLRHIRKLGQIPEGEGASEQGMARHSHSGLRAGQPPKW
BRAF, sequence (P15056 whole entry): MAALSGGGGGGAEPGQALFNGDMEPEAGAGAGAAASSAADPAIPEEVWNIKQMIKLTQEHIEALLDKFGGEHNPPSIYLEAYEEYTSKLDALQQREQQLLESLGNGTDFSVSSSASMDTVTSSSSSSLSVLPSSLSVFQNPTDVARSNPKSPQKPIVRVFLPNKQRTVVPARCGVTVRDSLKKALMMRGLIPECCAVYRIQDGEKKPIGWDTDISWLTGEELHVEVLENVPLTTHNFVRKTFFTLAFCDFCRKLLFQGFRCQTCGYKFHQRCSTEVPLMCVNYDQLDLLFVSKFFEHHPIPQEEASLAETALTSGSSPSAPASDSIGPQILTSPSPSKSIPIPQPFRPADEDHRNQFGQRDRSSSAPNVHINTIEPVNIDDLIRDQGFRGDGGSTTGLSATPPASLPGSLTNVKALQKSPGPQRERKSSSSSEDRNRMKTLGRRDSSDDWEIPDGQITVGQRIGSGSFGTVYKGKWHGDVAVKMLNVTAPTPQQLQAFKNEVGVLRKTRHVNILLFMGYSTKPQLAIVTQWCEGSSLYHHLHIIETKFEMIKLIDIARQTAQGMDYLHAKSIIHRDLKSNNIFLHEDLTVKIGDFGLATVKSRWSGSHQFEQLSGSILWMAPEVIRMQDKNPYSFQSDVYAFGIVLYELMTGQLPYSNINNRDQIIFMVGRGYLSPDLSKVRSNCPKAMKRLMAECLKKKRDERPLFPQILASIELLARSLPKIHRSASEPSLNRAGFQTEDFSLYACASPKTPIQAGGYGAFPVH
EPHA2, sequence (P29317 24-976): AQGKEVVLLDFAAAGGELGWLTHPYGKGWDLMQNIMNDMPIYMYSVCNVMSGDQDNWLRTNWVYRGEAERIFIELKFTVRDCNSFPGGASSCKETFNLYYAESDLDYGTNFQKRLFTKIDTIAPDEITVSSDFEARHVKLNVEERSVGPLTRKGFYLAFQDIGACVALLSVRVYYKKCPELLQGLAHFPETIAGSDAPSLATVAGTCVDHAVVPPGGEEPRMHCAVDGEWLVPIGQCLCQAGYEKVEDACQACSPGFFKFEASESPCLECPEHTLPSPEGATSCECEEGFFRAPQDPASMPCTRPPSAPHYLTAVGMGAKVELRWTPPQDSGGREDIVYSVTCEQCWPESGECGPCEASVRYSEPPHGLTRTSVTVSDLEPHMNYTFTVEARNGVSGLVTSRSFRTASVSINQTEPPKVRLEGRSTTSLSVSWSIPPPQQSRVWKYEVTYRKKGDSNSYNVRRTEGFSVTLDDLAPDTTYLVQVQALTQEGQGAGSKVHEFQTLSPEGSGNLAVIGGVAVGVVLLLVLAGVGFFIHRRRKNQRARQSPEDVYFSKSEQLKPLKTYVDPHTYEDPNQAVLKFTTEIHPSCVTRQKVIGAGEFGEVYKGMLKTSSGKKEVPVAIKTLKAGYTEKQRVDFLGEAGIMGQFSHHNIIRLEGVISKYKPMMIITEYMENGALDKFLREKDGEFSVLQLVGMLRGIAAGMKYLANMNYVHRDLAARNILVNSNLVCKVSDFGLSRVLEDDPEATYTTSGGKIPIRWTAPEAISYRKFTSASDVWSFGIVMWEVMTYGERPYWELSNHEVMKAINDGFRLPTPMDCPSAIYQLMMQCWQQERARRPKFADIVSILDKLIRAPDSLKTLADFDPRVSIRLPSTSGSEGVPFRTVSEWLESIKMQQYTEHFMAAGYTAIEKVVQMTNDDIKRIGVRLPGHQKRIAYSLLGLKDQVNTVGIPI
TSSK2, sequence (Q96PF2 whole entry): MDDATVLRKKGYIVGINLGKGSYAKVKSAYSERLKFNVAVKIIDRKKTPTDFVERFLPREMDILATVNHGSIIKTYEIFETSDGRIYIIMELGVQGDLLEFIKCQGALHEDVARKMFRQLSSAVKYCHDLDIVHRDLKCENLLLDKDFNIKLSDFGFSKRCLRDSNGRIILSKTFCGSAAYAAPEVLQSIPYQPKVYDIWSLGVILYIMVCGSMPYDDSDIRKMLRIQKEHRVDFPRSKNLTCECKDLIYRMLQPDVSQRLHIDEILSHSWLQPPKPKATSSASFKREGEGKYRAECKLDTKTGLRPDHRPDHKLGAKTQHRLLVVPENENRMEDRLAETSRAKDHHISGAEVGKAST
IR, sequence (P06213 28-1382): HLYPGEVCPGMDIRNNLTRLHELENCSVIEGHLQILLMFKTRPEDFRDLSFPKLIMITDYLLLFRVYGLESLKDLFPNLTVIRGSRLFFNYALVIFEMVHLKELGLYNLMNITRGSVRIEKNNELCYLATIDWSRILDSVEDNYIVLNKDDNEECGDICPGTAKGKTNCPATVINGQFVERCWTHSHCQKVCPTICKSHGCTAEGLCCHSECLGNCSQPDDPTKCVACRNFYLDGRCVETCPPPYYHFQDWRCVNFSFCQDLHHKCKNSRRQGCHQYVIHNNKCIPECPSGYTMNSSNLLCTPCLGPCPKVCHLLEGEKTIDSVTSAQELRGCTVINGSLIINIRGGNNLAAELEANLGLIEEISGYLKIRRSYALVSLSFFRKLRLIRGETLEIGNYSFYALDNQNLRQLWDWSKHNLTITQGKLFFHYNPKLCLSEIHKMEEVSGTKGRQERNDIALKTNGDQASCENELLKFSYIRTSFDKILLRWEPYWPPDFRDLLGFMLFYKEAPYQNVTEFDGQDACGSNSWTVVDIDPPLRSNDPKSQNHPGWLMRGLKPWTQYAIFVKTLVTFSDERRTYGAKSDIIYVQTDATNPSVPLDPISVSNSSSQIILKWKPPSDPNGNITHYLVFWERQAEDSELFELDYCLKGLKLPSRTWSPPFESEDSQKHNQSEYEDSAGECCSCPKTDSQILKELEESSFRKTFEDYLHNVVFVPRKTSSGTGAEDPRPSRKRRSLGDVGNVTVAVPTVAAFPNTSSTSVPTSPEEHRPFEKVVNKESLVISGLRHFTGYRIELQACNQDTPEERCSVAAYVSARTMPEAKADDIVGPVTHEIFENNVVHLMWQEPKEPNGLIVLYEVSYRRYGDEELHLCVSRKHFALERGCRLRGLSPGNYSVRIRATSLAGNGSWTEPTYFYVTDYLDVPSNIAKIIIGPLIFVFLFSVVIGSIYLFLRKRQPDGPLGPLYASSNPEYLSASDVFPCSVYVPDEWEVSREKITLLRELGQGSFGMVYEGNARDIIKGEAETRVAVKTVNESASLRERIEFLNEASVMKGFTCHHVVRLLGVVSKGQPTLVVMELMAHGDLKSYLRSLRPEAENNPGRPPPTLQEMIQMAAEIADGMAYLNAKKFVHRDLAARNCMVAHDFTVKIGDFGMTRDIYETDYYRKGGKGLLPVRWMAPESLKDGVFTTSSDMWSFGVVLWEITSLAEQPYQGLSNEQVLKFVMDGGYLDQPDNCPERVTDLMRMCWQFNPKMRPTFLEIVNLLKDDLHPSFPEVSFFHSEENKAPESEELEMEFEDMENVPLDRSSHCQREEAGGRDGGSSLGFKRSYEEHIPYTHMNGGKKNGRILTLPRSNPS
FYN, sequence (P06241 whole entry): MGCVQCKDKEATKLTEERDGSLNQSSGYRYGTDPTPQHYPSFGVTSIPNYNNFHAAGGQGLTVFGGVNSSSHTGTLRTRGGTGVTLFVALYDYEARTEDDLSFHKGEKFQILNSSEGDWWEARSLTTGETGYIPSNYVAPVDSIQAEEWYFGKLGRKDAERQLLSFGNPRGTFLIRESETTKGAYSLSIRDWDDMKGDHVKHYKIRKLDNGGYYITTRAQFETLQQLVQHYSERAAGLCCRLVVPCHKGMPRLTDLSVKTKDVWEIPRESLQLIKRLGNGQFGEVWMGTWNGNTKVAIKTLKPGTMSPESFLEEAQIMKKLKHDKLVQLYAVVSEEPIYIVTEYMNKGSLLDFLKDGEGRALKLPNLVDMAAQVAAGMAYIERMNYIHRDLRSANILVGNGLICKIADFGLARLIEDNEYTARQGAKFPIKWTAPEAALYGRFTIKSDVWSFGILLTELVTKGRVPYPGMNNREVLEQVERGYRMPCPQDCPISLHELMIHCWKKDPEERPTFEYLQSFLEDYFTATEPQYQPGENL

Compound `C#C[C@@](C)(c1ccc(Cl)cc1)c1csc(NC(=O)c2c(F)cc(N3CCNCC3)cc2F)n1` (stereo in doubt) [DF-003] has a remaining activity at 10 µM [1] of 92.9%, a remaining activity at 10 µM [2] of 97.7% and a remaining activity at 10 µM [3] of 98.7%. It also gave a remaining activity at 10 µM [4] of 116%, a remaining activity at 10 µM [5] of 88% and a remaining activity at 10 µM [6] of 36.7%. It also gave a remaining activity at 10 µM [7] of 114%, a remaining activity at 10 µM [8] of 94.6% and a remaining activity at 10 µM [9] of 46.4%. The remaining activity at 10 µM [10] was 104%, the remaining activity at 10 µM [11] was 88.3% and the remaining activity at 10 µM [12] was 101%. For the same compound, the “impact on basal expression of TNF, CXCL10, CXCL8” value [13] was “no impact”, the remaining activity at 10 µM [14] was 91% and the remaining activity at 10 µM [15] was 7.88%. For the same compound, the remaining activity at 10 µM [16] was 161%, the remaining activity at 10 µM [17] was 125% and the general immunosuppression [18] was “no general immunosuppression was observed”. For the same compound, the remaining activity at 10 µM [19] was 99.5%, the remaining activity at 10 µM [20] was 77.5% and the remaining activity at 10 µM [21] was 92.8%. It also gave a remaining activity at 10 µM [22] of 129%, a remaining activity at 10 µM [23] of 111% and a remaining activity at 10 µM [24] of 84.1%. It also gave a remaining activity at 10 µM [25] of 101%, a remaining activity at 10 µM [26] of 91.7% and a remaining activity at 10 µM [27] of 30.3%. The remaining activity at 10 µM [28] was 98.2%, the remaining activity at 10 µM [29] was 105% and the remaining activity at 10 µM [30] was 114%. The remaining activity at 10 µM [31] was 105%, the remaining activity at 10 µM [32] was 83.8% and the remaining activity at 10 µM [33] was 104%. The remaining activity at 10 µM [34] was 80.8%, the remaining activity at 10 µM [35] was 99.5% and the “Supernatant CXCL8 level (ELISA)” value ([36]; Log [DF-003 (nM)] 0.3035) was 652.652 and 657.101 and 652.360. For the same compound, the “Supernatant CXCL8 level (ELISA)” value ([36]; Log [DF-003 (nM)] 0.8032) was 717.775 and 649.393 and 582.315, the “Supernatant CXCL8 level (ELISA)” value ([36]; Log [DF-003 (nM)] 1.3029) was 735.124 and 626.517 and 638.135 and the “Supernatant CXCL8 level (ELISA)” value ([36]; Log [DF-003 (nM)] 2.8020) was 0.000. For the same compound, the “Supernatant CXCL8 level (ELISA)” value ([36]; Log [DF-003 (nM)] 3.3017) was 0.000, the “Supernatant CXCL8 level (ELISA)” value ([36]; Log [DF-003 (nM)] 3.8013) was 0.000 and the “Supernatant CXCL8 level (ELISA)” value ([36]; Log [DF-003 (nM)] -0.1962) was 619.393 and 689.438 and 663.124. It also gave a remaining activity at 10 µM [37] of 104% and a remaining activity at 10 µM [38] of 53.2%.
